Results: US8338565B2, “Macrocyclic compounds for inhibition of tumor necrosis factor alpha” (Ensemble Therapeutics Corporation, priority 2008, dated 2012)
Read-outs that look alike come from different tables or passages of the source. Numbered stars: 1 amine (or outer) side, 2 acyl side, 3 side chain; on linkers, the order of the positions; unused ones are H or OH. Bridge positions count the residues as written; N and C are the ends. Square brackets hold non-standard residues; d marks the D form. Peptide text beside a SMILES is read from it. Tartaroyl(2R,3R-(OAc)2) = CC(=O)O[C@@H](C(=O)[*:1])[C@@H](OC(C)=O)C(=O)[*:2]; Bip(4'-Cl) = N[C@@H](Cc1ccc(-c2ccc(Cl)cc2)cc1)C(=O)O; Phe(4-CF3) = N[C@@H](Cc1ccc(C(F)(F)F)cc1)C(=O)O; dPhe(4-CF3) = N[C@H](Cc1ccc(C(F)(F)F)cc1)C(=O)O; Phe(2,4-Cl2) = N[C@@H](Cc1ccc(Cl)cc1Cl)C(=O)O; Bip = N[C@@H](Cc1ccc(-c2ccccc2)cc1)C(=O)O; dBip = N[C@H](Cc1ccc(-c2ccccc2)cc1)C(=O)O; dPhe(4-NH2) = Nc1ccc(C[C@@H](N)C(=O)O)cc1; Phe(4-Br) = N[C@@H](Cc1ccc(Br)cc1)C(=O)O; Phe(4-NH2) = Nc1ccc(C[C@H](N)C(=O)O)cc1; d(hPhe) = N[C@H](CCc1ccccc1)C(=O)O; 2Thi = N[C@@H](Cc1cccs1)C(=O)O; d2Thi = N[C@H](Cc1cccs1)C(=O)O; Suc = O=C(CCC(=O)[*:2])[*:1]

Legend:
[1] = molecular target: T1, TNFα / TNFα receptor (TNFα R1/Fc) (Homo sapiens, UniProt P01375); experiment: Inhibition of binding of TNFα to the TNFα receptor (plate ELISA competition); conditions: Table 2
T1 construct: purchased R&D Systems
T1 sequence (P01375 77-233 limits assumed, species assumed): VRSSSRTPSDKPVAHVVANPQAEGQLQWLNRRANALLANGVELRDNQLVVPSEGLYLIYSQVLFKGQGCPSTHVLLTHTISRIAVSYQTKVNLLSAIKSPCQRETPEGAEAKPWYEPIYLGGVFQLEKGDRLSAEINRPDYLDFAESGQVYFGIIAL
In short: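 Compound dilutions were preincubated 30 min at RT with 8.33 nM TNFα R1/Fc in PBST with 2% DMSO, then added to wells coated with 15 nM TNFα for 30 min. Bound receptor was detected with HRP anti-human Fc and TMB, read as A450.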

[2] = system: TNF-α (degradation of IkB in HeLa cells or A431 cells); experiment: Human cell-based assay: inhibition of TNF-α induced degradation of IkB; conditions: for inhibition at 25 µM: 25 μM compound, read-out: Inhibition at Various Compound Concentrations, 25 μM; for inhibition at 10 µM: read-out: Inhibition at Various Compound Concentrations, 10 μM; for inhibition at 5 µM: read-out: Inhibition at Various Compound Concentrations, 5 μM
Experimental: We used a human cell-based assay to determine the TNF-α antagonistic activity of the compounds of this invention based upon the ability of the compounds to inhibit the degradation of IkB in those cells. The assay was performed on either HeLa cells or A431 cells.
On Day 1, wells of a 24-well tissue culture plate were seeded with cells that had been harvested from cultures in T-75 flasks by standard trypsin/EDTA treatment. The harvested cells were suspended in EMEM/10% FBS/P/S (100,000 HeLa cells/mL or 200,000 A431 cells/mL) and 1 mL aliquots were placed into each well. The cells were incubated overnight at 37° C. in a humidified CO2 incubator. On day 2, the cells were approximately 95% confluent.
Test and control compounds were diluted to a 1 mM solution by dilution in DMSO. The assay was run in Costar tubes. Into each tube was placed 2.5 or 5.0 μL of test compound (for testing 5 μM and 10 μM concentrations, respectively), 2.5 μL of 100× TNF-α solution (200 ng/mL TNF-α in EMEM containing 1μg/mL cycloheximide) and, for those tubes containing 2.5 μL of compound, an additional 2.5 μL of DMSO. To each tube was then added 0.5 mL of EMEM containing 1μg/mL cycloheximide. Negative control tubes contained either a) no compound, or b) no TNF-α. Tubes were then incubated for 30 minutes at room temperature.
Once incubation had begun, the media was aspirated from the cells in the 24-well plates. Sufficient EMEM/10% FBS/P/S containing 1 ug/mL cycloheximide was then added to cover the cells (approximately 3 mL) and the cells were retuned to the 37° C. humidified CO2 incubator until compound incubation was completed. The media was then aspirated from the cells, 0.2 mL of the compound solution was added and the cells re-incubated at 37° C. for 30 minutes. The plates were then placed on ice, the compound solution was aspirated from each well, and the cells washed once with 1 mL of cold PBS. Cells were then fixed with 500 μL of 3.7% formaldehyde in PBS (“fix solution”) for 20 minutes at room temperature. The fix solution was decanted and the cells permeabilized by 4× washing with 500 uL PBS/0.1% Triton X-100. After the final permeabilization wash, the cells were treated with 500 uL of Odyssey blocking buffer (OBB) and incubated at room temperature with shaking for 90 minutes.
The OBB was decanted and then to each well was then added 125 μL each of mouse anti-IkB CST#4814 (diluted 1:200 in OBB) and rabbit anti-beta-tubulin CST#2146 (diluted 1:200 in OBB). Plates were sealed with parafin and incubated overnight at room temperature with shaking.
On day 3, the antibody solution was removed from the cells and the cells were washed 5× with 0.5 mL PBST for five minutes each on a shaker. To each well was then aded 125 μL of a secondary antibody solution containing goat anti-mouse IgG-IRDye 800 and goat anti-rabbit IgG-IRDye (each diluted 1:500 in OBB+0.2% Tween 20). The plates were covered with aluminum foil and incubated for 1 hour at room temperature with shaking. The secondary antibody solution was removed and the cells washed 3× with 0.5 mL PBST for five minutes each on a shaker. Cells were then scanned by LICOR with the following settings: 700 intensity=6.0, 800 intensity=6.5; microplate2 settings with 3.0 mm offset; 169 resolution. LICOR values were fitted to an equation for a sigmoidal curve and IC50 values calculated from the fitted parameters. […] Blank cells indicate that the compound was not tested at that concentration. Certain compounds that were tested more than once and the values reflect the average of the multiple tests.

[3] = read-out: Activity (IC50, inhibition of TNFα binding to TNFα R1/Fc)
[4] = 10 μM compound, HeLa or A431 cells
[5] = 5 μM compound, HeLa or A431 cells

IC50 [1, 3] [µM]	Compound	inhibition at 25 µM ([2]; HeLa or A431 cells) [%]	inhibition at 10 µM [2, 4] [%]	inhibition at 5 µM [2, 5] [%]	IC50 ([1]; Activity (IC50, inhibition of TNFα binding to TNFα R1/Fc)) [µM]	inhibition at 5 µM [2] [%]	inhibition at 10 µM [2] [%]
> 100	O=C1CCC(=O)N[C@@H](Cc2cccs2)C(=O)N[C@@H](Cc2ccc(-c3ccccc3)cc2)C(=O)N[C@H](Cc2ccccc2)C(=O)N[C@H](C(=O)O)Cc2ccc(cc2)N1 [Compound 43] ([2Thi][Bip][dF][Phe(4-NH2)]-OH; linker N-4 via Suc)	< 10	–	–	–	–	–
< 10	O=C1CCC(=O)N[C@H](Cc2cccs2)C(=O)N[C@@H](Cc2ccc(-c3ccccc3)cc2)C(=O)N[C@H](CCc2ccccc2)C(=O)N[C@H](C(=O)O)Cc2ccc(cc2)N1 [Compound 47] ([d2Thi][Bip][d(hPhe)][Phe(4-NH2)]-OH; linker N-4 via Suc)	–	< 10	–	–	–	–
10 to 30	O=C1CCC(=O)N[C@H](Cc2cccs2)C(=O)N[C@@H](Cc2ccc(Cl)cc2Cl)C(=O)N[C@H](Cc2ccccc2)C(=O)N[C@H](C(=O)O)Cc2ccc(cc2)N1 [Compound 82] ([d2Thi][Phe(2,4-Cl2)][dF][Phe(4-NH2)]-OH; linker N-4 via Suc)	–	< 10	< 10	–	–	–
10 to 30	O=C1CCC(=O)N[C@H](Cc2cccs2)C(=O)N[C@@H](Cc2ccc(Br)cc2)C(=O)N[C@H](Cc2ccccc2)C(=O)N[C@H](C(=O)O)Cc2ccc(cc2)N1 [Compound 85] ([d2Thi][Phe(4-Br)][dF][Phe(4-NH2)]-OH; linker N-4 via Suc)	< 10	–	–	–	–	–
10 to 30	O=C1CCC(=O)N[C@H](Cc2cccs2)C(=O)N[C@@H](Cc2ccc(C(F)(F)F)cc2)C(=O)N[C@H](Cc2ccccc2)C(=O)N[C@H](C(=O)O)Cc2ccc(cc2)N1 [Compound 89] ([d2Thi][Phe(4-CF3)][dF][Phe(4-NH2)]-OH; linker N-4 via Suc)	< 10	–	–	–	–	–
10 to 30	O=C1CCC(=O)N[C@H](CCc2ccccc2)C(=O)N[C@@H](Cc2ccc(Br)cc2)C(=O)N[C@H](Cc2ccccc2)C(=O)N[C@@H](C(=O)O)Cc2ccc(cc2)N1 [Compound 111] ([d(hPhe)][Phe(4-Br)][dF][dPhe(4-NH2)]-OH; linker N-4 via Suc)	–	< 10	–	–	–	–
< 10	O=C1CCC(=O)N[C@H](CCc2ccccc2)C(=O)N[C@@H](Cc2ccc(Cl)cc2Cl)C(=O)N[C@H](Cc2ccccc2)C(=O)N[C@@H](C(=O)O)Cc2ccc(cc2)N1 [Compound 112] ([d(hPhe)][Phe(2,4-Cl2)][dF][dPhe(4-NH2)]-OH; linker N-4 via Suc)	–	< 10	–	–	–	–
< 10	O=C1CCC(=O)N[C@H](CCc2ccccc2)C(=O)N[C@@H](Cc2ccc(-c3ccc(Cl)cc3)cc2)C(=O)N[C@H](Cc2ccccc2)C(=O)N[C@H](C(=O)O)Cc2ccc(cc2)N1 [Compound 116] ([d(hPhe)][Bip(4'-Cl)][dF][Phe(4-NH2)]-OH; linker N-4 via Suc)	–	< 10	10 to 50	–	–	–
< 10	O=C1CCC(=O)N[C@H](CCc2ccccc2)C(=O)N[C@@H](Cc2ccc(-c3ccccc3)cc2)C(=O)N[C@H](Cc2ccccc2)C(=O)N[C@H](C(=O)O)Cc2ccc(cc2)N1 [Compound 117] ([d(hPhe)][Bip][dF][Phe(4-NH2)]-OH; linker N-4 via Suc)	–	50 to 80	< 10	–	–	–
10 to 30	O=C1CCC(=O)N[C@H](Cc2ccc(C(F)(F)F)cc2)C(=O)N[C@@H](Cc2ccc(-c3ccccc3)cc2)C(=O)N[C@H](Cc2ccccc2)C(=O)N[C@H](C(=O)O)Cc2ccc(cc2)N1 [Compound 118] ([dPhe(4-CF3)][Bip][dF][Phe(4-NH2)]-OH; linker N-4 via Suc)	–	10 to 50	–	–	–	–
< 10	O=C1COc2ccc(cc2)C[C@@H](C(=O)N[C@@H](Cc2ccccc2)C(=O)O)NC(=O)[C@@H](CCc2ccc(C(F)(F)F)cc2)NC(=O)[C@H](Cc2ccccc2)NC(=O)[C@@H](Cc2ccc(C(F)(F)F)cc2)N1 [Compound 157]	–	50 to 80	10 to 50	–	–	–
–	O=C1COc2ccc(cc2)C[C@@H](C(=O)N[C@@H](Cc2ccccc2)C(=O)O)NC(=O)[C@@H](CCc2ccccc2)NC(=O)[C@H](Cc2ccc(-c3ccccc3)cc2)NC(=O)[C@@H](CCc2ccccc2)N1 [Compound 158]	–	–	–	< 10	50 to 80	50 to 80
< 10	O=C(O)[C@@H]1Cc2ccc(cc2)NC(=O)[C@H](O)[C@@H](O)C(=O)N[C@H](Cc2cccs2)C(=O)N[C@@H](Cc2ccc(-c3ccc(Cl)cc3)cc2)C(=O)N[C@H](Cc2ccccc2)C(=O)N1 [Compound 180]	–	< 10	< 10	–	–	–
> 100	O=C1CCC(=O)N[C@H](Cc2cccs2)C(=O)N[C@H](Cc2ccc(-c3ccccc3)cc2)C(=O)N[C@H](Cc2ccccc2)C(=O)N[C@H](C(=O)O)Cc2ccc(cc2)N1 [Compound 194] ([d2Thi][dBip][dF][Phe(4-NH2)]-OH; linker N-4 via Suc)	< 10	–	–	–	–	–
< 10	O=C1CCC(=O)N[C@H](Cc2cccs2)C(=O)N[C@@H](Cc2ccc(-c3ccccc3)cc2)C(=O)N[C@H](Cc2ccccc2)C(=O)N[C@@H](C(=O)O)Cc2ccc(cc2)N1 [Compound 196] ([d2Thi][Bip][dF][dPhe(4-NH2)]-OH; linker N-4 via Suc)	< 10	–	–	–	–	–
< 10	O=C1CCC(=O)N[C@H](Cc2cccs2)C(=O)N[C@@H](Cc2ccc(-c3ccccc3)cc2)C(=O)N[C@H](Cc2ccccc2)C(=O)N[C@@H](C(=O)N[C@@H](Cc2ccccc2)C(=O)O)Cc2ccc(cc2)N1 [Compound 198] ([d2Thi][Bip][dF][dPhe(4-NH2)]F-OH; linker N-4 via Suc)	50 to 80	–	–	–	–	–
< 10	O=C1CCC(=O)N[C@H](Cc2cccs2)C(=O)N[C@@H](Cc2ccc(Br)cc2)C(=O)N[C@H](Cc2ccccc2)C(=O)N[C@H](C(=O)N[C@@H](Cc2ccccc2)C(=O)O)Cc2ccc(cc2)N1 [Compound 201] ([d2Thi][Phe(4-Br)][dF][Phe(4-NH2)]F-OH; linker N-4 via Suc)	–	10 to 50	–	–	–	–
< 10	CC(=O)O[C@H]1C(=O)Nc2ccc(cc2)C[C@H](C(=O)O)NC(=O)[C@@H](CCc2ccccc2)NC(=O)[C@H](Cc2ccc(-c3ccccc3)cc2)NC(=O)[C@@H](Cc2cccs2)NC(=O)[C@@H]1OC(C)=O [Compound 217] ([d2Thi][Bip][d(hPhe)][dPhe(4-NH2)]-OH; linker N-4 via Tartaroyl(2R,3R-(OAc)2))	–	< 10	< 10	–	–	–
< 10	O=C1N[C@H](CCc2ccccc2)C(=O)N[C@@H](C(=O)O)Cc2ccc(cc2)NC(=O)[C@H](O)[C@@H](O)C(=O)N[C@H](Cc2cccs2)C(=O)N[C@H]1Cc1ccc(-c2ccccc2)cc1 [Compound 236]	–	10 to 50	10 to 50	–	–	–
< 10	O=C1N[C@H](CCc2ccccc2)C(=O)N[C@@H](C(=O)O)Cc2ccc(cc2)NC(=O)[C@H](O)[C@@H](O)C(=O)N[C@H](Cc2ccccc2)C(=O)N[C@H]1Cc1ccc(Br)cc1 [Compound 237]	–	< 10	< 10	–	–	–

Compound	IC50 [1, 3] [µM]	inhibition at 25 µM ([2]; HeLa or A431 cells) [%]	inhibition at 10 µM [2, 4] [%]	inhibition at 5 µM [2, 5] [%]	IC50 ([1]; Activity (IC50, inhibition of TNFα binding to TNFα R1/Fc)) [µM]	inhibition at 5 µM [2] [%]	inhibition at 10 µM [2] [%]
O=C1COc2ccc(cc2)C[C@@H](C(=O)O)NC(=O)[C@H](Cc2ccccc2)NC(=O)[C@H](Cc2ccc(-c3ccccc3)cc2)NC(=O)[C@H](Cc2cccs2)N1 [Compound 212]	< 10	–	–	–	–	< 10	< 10
